Earlier results, collected in patent publication US20080292714A1, “BONE TARGETING OF DEGRADABLE DRUG FILLED NANOPARTICLES” (Semafore Pharmaceuticals Inc., priority 2003, published 2008).

Key:
[1] = portion not accumulated in skeleton
[2] = system: C8 (mouse embryo fibroblasts transformed with Ela+ras) cells; details: 10 micromolar
p53 = molecular target: T1, p53 (Mus musculus, UniProt P02340)
T1 construct: endogenous in cells; host or cells: living mice, C57BL and Balb/c strains
T1 sequence (P02340 whole entry): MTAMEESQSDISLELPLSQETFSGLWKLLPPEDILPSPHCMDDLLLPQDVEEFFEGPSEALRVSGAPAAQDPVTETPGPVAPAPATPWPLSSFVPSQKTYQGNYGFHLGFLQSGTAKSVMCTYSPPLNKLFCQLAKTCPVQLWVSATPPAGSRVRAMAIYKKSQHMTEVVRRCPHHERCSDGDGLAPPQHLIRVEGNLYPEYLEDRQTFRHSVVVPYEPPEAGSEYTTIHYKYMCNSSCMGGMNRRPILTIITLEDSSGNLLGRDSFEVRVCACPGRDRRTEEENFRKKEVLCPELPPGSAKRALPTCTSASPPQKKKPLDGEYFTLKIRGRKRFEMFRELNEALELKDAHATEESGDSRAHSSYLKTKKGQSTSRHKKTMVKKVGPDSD

Structure (SMILES) | time after administration at which excretion is almost complete [1] [h] | inhibition of apoptosis induced by doxorubicin, etoposide, Taxol, cytosine arabinoside, UV light, gamma radiation [2] | tumors or pathological lesions in gamma-irradiated survivors (p53; 7 months post-irradiation) | weight loss versus controls (p53; irradiated treated mice) | protective effect in p53-null mice treated with radiation (p53; p53-null mice controls) | rescue from 60% killing doses of gamma radiation (p53; single i.p. injection 2.2 mg/kg, 8 Gy C57BL, 6 Gy Balb/c)
O=P([O-])(O)CN(CCN(CP(=O)([O-])O)CP(=O)(O)O)CP(=O)([O-])O.[153Sm+3] [^153Sm-EDTMP] | ≤ 6 |  |  |  |  | 
Cc1ccc(C(=O)Cn2c3c(sc2=N)CCCC3)cc1 [pifithrin-α, 2-[2-imino-4,5,6,7-tetrahydro-1,3-benzothiazol-3(2H)-yl]-1-(4-methylphenyl)-1-ethanone] |  | inhibited apoptosis | no tumors or pathological lesions were found | less weight-loss than controls | no protective effect | completely rescued
